Columns and labels:
[1] = test system: Human corneal epithelial cells; assay: BrdU incorporation cell proliferation assay in BAK-exposed corneal epithelial cells; assay type: cell-based
Method: (§1) Human corneal epithelial cells at approximately 80% confluence were treated with 0%, 0.001%, 0.01%, or 0.1% BAK for 15 minutes. After 3 and 24 hours of recovery in culture medium, cell proliferation was measured using a calorimetric BrdU incorporation assay. Apoptosis was measured using a calorimetric annexin-based cell death assay. […] To further assess the ability of Tb4 to prevent apoptosis, corneal epithelial cells were treated with 0.01% BAK±Tβ4 over a 5 day time course.

[2] = test system: Human corneal epithelial cells; assay: annexin-based cell death (apoptosis) assay in BAK-exposed corneal epithelial cells
Method: as §1

[3] = 1 mcg/ml Tβ4, BAK-treated cells, 3 and 24 hour time points
[4] = 0.001%, 0.01% or 0.1% BAK for 15 minutes, 3 and 24 hours recovery

Row | Substance | cell proliferation of BAK-treated cells in presence of Tβ4 [1, 3] | BAK-initiated epithelial cell apoptosis ([2]; 0.01% BAK ± Tβ4, longer times in culture (2 to 5 days)) | apoptosis of BAK-treated cells in presence of Tβ4 [2, 3] | apoptosis compared to cells cultured in medium alone ([2]; 5 days in culture, no BAK comparison (medium alone)) | corneal epithelial cell proliferation compared to control [1, 4] | apoptosis compared to control [2, 4]
1 | Thymosin beta 4 (SDKPDMAEIEKFDKSKLKKTETQEKNPLPSKETIEQEKQAGES; Thymosin beta-4; UniProt P62328 2-44, looked up) [Tβ4] | not promoted | significantly inhibited | not inhibited | decreased apoptosis |  | 
2 | benzalkonium chloride [BAK, reference compound] |  |  |  |  | inhibited | increased
